From patent US10821115B2, “Compounds that inhibit Mcl-1 protein” (priority 2017, dated 2020)
Read-outs that look alike come from different tables or passages of the source.

Legend:
[1] = target: recombinant human Mcl-1 (residues 171-327) / Bim interaction (Homo sapiens (Human), UniProt Q07820); assay: biochemical; type: binding; conditions: read-out: Mcl-1 HTRF IC50
[2] = system: human multiple myeloma cell line, OPM-2; assay: Cell viability assay (OPM-2 10 FBS), CellTiter-Glo; type: cell-based
Method in brief: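 Cells were seeded at 3000 cells/well in RPMI 1640 with 10% FBS and exposed to serially diluted compounds for 16 h at 37 °C, 5% CO2.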

[3] = 0.1 nM Mcl-1(171-327), 0.05 nM biotin-Bim (51-76)
[4] = Homo sapiens, OPM-2, 16 h, read-out: OPM-2 10% FBS IC50 IP, OPM-2 cells, 10% FBS, 16 h incubation
[5] = read-out: OPM-2 10% FBS IC50 IP, OPM-2 cells, 10% FBS, 16 h incubation

Sequence of recombinant human Mcl-1 (residues 171-327) / Bim interaction (Q07820 171-327): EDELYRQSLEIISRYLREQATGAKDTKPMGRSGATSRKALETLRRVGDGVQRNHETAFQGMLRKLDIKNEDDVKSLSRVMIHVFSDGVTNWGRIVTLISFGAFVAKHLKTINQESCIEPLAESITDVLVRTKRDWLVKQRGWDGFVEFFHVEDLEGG

Row | SMILES | IC50 [1, 3] [nM] | IC50 [2, 4] [nM] | IC50 [2, 5] [nM] | IC50 ([1]; TR-FRET, Mcl-1(171-327) / biotin-Bim (51-76)) [nM] | IC50 ([2]; read-out: OPM-2 10% FBS IC50 IP, OPM-2 cells, 10% FBS, 16 h, CellTiter-Glo) [nM]
1 | CC(C)CO[C@]1(CN2CCN3CCCC[C@@H]3C2)/C=C/C[C@H](C)[C@@H](C)S(=O)(=O)NC(=O)c2ccc3c(c2)N(C[C@@H]2CC[C@H]21)C[C@@]1(CCCc2cc(Cl)ccc21)CO3 [Example 354, (1S,3′R,6′R,7′R,8′E,11′S,12′R)-6-chloro-11′,12′-dimethyl-7′-(2-methylpropoxy)-7′-((9aR)-octahydro-2H-pyrido[1,2-a]pyrazin-2-ylmethyl)-3,4-dihydro-2H,15′H-spiro[naphthalene-1,22′-[20]oxa[13]thia[1,14]diazatetracyclo [14.7.2.0~3,6~.0~19,24~]pentacosa[8,16,18,24]tetraen]-15′-one 13′,13′-dioxide] | 0.214 | 450 | – | – | –
2 | CC(C)CO[C@]1(CN2CCN(C3COC3)CC2)/C=C/C[C@H](C)[C@@H](C)S(=O)(=O)NC(=O)c2ccc3c(c2)N(C[C@@H]2CC[C@H]21)C[C@@]1(CCCc2cc(Cl)ccc21)CO3 [Example 355] | 0.172 | 272 | – | – | –
3 | CC(C)CO[C@]1(CN2CCN3CCOC[C@@H]3C2)/C=C/C[C@H](C)[C@@H](C)S(=O)(=O)NC(=O)c2ccc3c(c2)N(C[C@@H]2CC[C@H]21)C[C@@]1(CCCc2cc(Cl)ccc21)CO3 [Example 356, (1S,3′R,6′R,7′R,8′E,11′S,12′R)-6-chloro-7′-((9aS)-hexahydropyrazino[2,1-c][1,4]oxazin-8(1H)-ylmethyl)-11′,12′-dimethyl-7′-(2-methylpropoxy)-3,4-dihydro-2H,15′H-spiro[naphthalene-1,22′-[20]oxa[13]thia[1,14]diazatetracyclo [14.7.2.0~3,6~.0~19,24~]pentacosa[8,16,18,24]tetraen]-15′-one 13′,13′-dioxide] | 0.11 | 367 | – | – | –
4 | CO[C@]1(CN2CCN3CCOC[C@@H]3C2)/C=C/C[C@H](C)[C@@H](CCO)S(=O)(=O)NC(=O)c2ccc3c(c2)N(C[C@@H]2CC[C@H]21)C[C@@]1(CCCc2cc(Cl)ccc21)CO3 [Example 357, (1S,3′R,6′R,7′R,8′E,11′S,12′R)-6-chloro-7′-((9aS)-hexahydropyrazino[2,1-c][1,4]oxazin-8(1H)-ylmethyl)-12′-(2-hydroxyethyl)-7′-methoxy-11′-methyl-3 ,4-dihydro-2H,15′H-spiro[naphthalene-1,22′-[20]oxa[13]thia[1,14]diazatetracyclo [14.7.2.0~3,6~.0~19,24~]pentacosa[8,16,18,24]tetraen]-15′-one 13′,13′-dioxide] | 0.067 | 118 | – | – | –
5 | CO[C@]1(CN2CCN3CCCC[C@@H]3C2)/C=C/C[C@H](C)[C@@H](CC=O)S(=O)(=O)NC(=O)c2ccc3c(c2)N(C[C@@H]2CC[C@H]21)C[C@@]1(CCCc2cc(Cl)ccc21)CO3 [Example 360, ((1S,3′R,6′R,7′R,8′E,11′S,12′R)-6-Chloro-7′-methoxy-11′-methyl-7′-((9aR)-octahydro-2H-pyrido[1,2-a]pyrazin-2-ylmethyl)-13′,13′-dioxido-15′-oxo-3,4-dihydro-2H-spiro[naphthalene-1,22′-[20]oxa[13]thia[1,14]diazatetracyclo[14.7.2.0-3,6˜.0˜19,24˜]pentacosa[8,16,18,24]tetraen]-12′-yl)acetaldehyde] | 1.07 | 2410 | – | – | –
6 | CO[C@@]1(CN2CCN3CCOC[C@@H]3C2)/C=C/C[C@H](C)[C@@H](CCN2CCOCC2)S(=O)(=O)NC(=O)c2ccc3c(c2)N(C[C@@H]2CC[C@H]21)C[C@@]1(CCCc2cc(Cl)ccc21)CO3 [Example 361, (1S,3′R,6′R,7′S,8′E,11′S,12′R)-6-chloro-7′-((9aS)-hexahydropyrazino[2,1-c][1,4]oxazin-8(1H)-ylmethyl)-7′-methoxy-11′-methyl-12′-(2-(4-morpholinyl)ethyl)-3,4-dihydro-2H,15′H-spiro[naphthalene-1,22′-[20]oxa[13]thia[1,14]diazatetracyclo [14.7.2.0~3,6~.0~19,24~]pentacosa[8,16,18,24]tetraen]-15′-one 13′,13′-dioxide] | 0.101 | 28 | – | – | –
7 | CO[C@]1(CN2CCN3CCCC[C@@H]3C2)/C=C/C[C@H](C)[C@@H](CCN2CCOCC2)S(=O)(=O)NC(=O)c2ccc3c(c2)N(C[C@@H]2CC[C@H]21)C[C@@]1(CCCc2cc(Cl)ccc21)CO3 [Example 365, (1S,3′R,6′R,7′R,8′E,11′S,12′R)-6-chloro-7′-methoxy-11′-methyl-12′-(2-(4-morpholinyl)ethyl)-7′-((9aR)-octahydro-2H-pyrido[1,2-a]pyrazin-2-ylmethyl)-3,4-dihydro-2H,15′H-spiro[naphthalene-1,22′-[20]oxa[13]thia[1,14]diazatetracyclo [14.7.2.0~3,6~.0~19,24~]pentacosa[8,16,18,24]tetraen]-15′-one 13′,13′-dioxide] | 0.104 | 32 | – | – | –
8 | CCCO[C@]1(CN2CCN(C(C)C)[C@H](C)C2)/C=C/C[C@H](C)[C@@H](C)S(=O)(=O)NC(=O)c2ccc3c(c2)N(C[C@@H]2CC[C@H]21)C[C@@]1(CCCc2cc(Cl)ccc21)CO3 [Example 368, (1S,3′R,6′R,7′R,8′E,11′S,12′R)-6-chloro-11′,12′-dimethyl-7′-(((3R)-3-methyl-4-(2-propanyl)-1-piperazinyl)methyl)-7′-propoxy-3,4-dihydro-2H,15′H-spiro[naphthalene-1,22′-[20]oxa[13]thia[1,14]diazatetracyclo [14.7.2.0~3,6~.0~19,24~]pentacosa[8,16,18,24]tetraen]-15′-one 13′,13′-dioxide] | 0.069 | 68 | – | – | –
9 | COCC(COC)N1CCN(C[C@]2(OC)/C=C/C[C@H](C)[C@@H](C)S(=O)(=O)NC(=O)c3ccc4c(n3)N(C[C@@H]3CC[C@H]32)C[C@@]2(CCCc3cc(Cl)ccc32)CO4)CC1 [Example 371, (1S,3′R,6′R,7′S,8′E,11′S,12′R)-6-chloro-7′-methoxy-7′-((4-(2-methoxy-1-(methoxymethyl)ethyl)-1-piperazinyl)methyl)-11′,12′-dimethyl-3,4-dihydro-2H,15′H-spiro[naphthalene1,22′-[20]oxa[13]thia[1,14,25]triazatetracyclo [14.7.2.0~3,6~.0~19,24~]pentacosa[8,16,18,24]tetraen]-15′-one 13′,13′-dioxide] | 0.101 | 43 | – | – | –
10 | CO[C@@]1(CN2CCN3CCCC[C@@H]3C2)/C=C/C[C@H](C)[C@@H](C)S(=O)(=O)NC(=O)c2ccc3c(n2)N(C[C@@H]2CC[C@H]21)C[C@@]1(CCCc2cc(Cl)ccc21)CO3 [Example 372, (1S,3′R,6′R,7′S,8′E,11′S,12′R)-6-chloro-7′-methoxy-11′,12′-dimethyl-7′-((9aR)-octahydro-2H-pyrido[1,2-a]pyrazin-2-ylmethyl)-3,4-dihydro-2H,15′H-spiro[naphthalene-1,22′-[20]oxa[13]thia[1,14,25]triazatetracyclo [14.7.2.0~3,6~.0~19,24~]pentacosa[8,16,18,24]tetraen]-15′-one 13′,13′-dioxide] | 0.175 | 85 | – | – | –
11 | C[C@@H]1[C@@H](C)CCCC2(CN3CCOC[C@H]3CO2)[C@@H]2CC[C@H]2CN2C[C@@]3(CCCc4cc(Cl)ccc43)COc3ccc(cc32)C(=O)NS1(=O)=O (stereo partly drawn) [Example 400, (1S,3′R,6′R,7′S,9a″S,11′S,12′R)-6-chloro-11′,12′-dimethyl-3,4,6″,7″,9″,9a″-hexahydro-1″H,2H,15′H-dispiro[naphthalene-1,22′-[20]oxa[13]thia[1,14]diazatetracyclo[14.7.2.0-3,6˜.0˜19,24˜]pentacosa[16,18,24]triene-7′,3″-[1,4]oxazino[3,4-c][1,4]oxazin]-15′-one 13′,13′-dioxide] | 1.1 | – | 2870 | – | –
12 | C[C@@H]1[C@@H](C)CCCC2(CN(S(C)(=O)=O)CCO2)[C@@H]2CC[C@H]2CN2C[C@@]3(CCCc4cc(Cl)ccc43)COc3ccc(cc32)C(=O)NS1(=O)=O (stereo partly shown) [Example 466] | 0.9 | – | 446 | – | –
13 | CCO[C@]1(CN2CCN3CCOC[C@@H]3C2)CCC[C@H](C)[C@@H](CCOC)S(=O)(=O)NC(=O)c2ccc3c(c2)N(C[C@@H]2CC[C@H]21)C[C@@]1(CCCc2cc(Cl)ccc21)CO3 [Example 518, (1S,3′R,6′R,7′R,11′S,12′R)-6-chloro-7′-ethoxy-7′-((9aS)-hexahydropyrazino[2,1-c][1,4]oxazin-8(1H)-ylmethyl)-12′-(2-methoxyethyl)-11′-methyl-3,4-dihydro-2H,15′H-spiro[naphthalene-1,22′-[20]oxa[13]thia[1,14]diazatetracyclo[14.7.2.0˜3,6˜.0˜19,24˜]pentacosa[16,18,24]trien]-15′-one 13′,13′-dioxide] | 0.164 | 224 | – | – | –
14 | CO[C@@]1(CC(=O)N(C)C)/C=C/C[C@H](C)[C@@H](C)S(=O)(=O)NC(=O)c2ccc3c(c2)N(C[C@@H]2CC[C@H]21)C[C@@]1(CCCc2cc(Cl)ccc21)CO3 [Example 100002, 2-((1 S,3′R,6′R,7′S,8′E,11′S, 12′R)-6-chloro-7′-methoxy-11′,12′-dimethyl-13′,13′-dioxido-15′-oxo-3,4-dihydro-2H-spiro[naphthalene-1,22′-[20]oxa[13]thia[1,14]diazatetracyclo[14.7.2.0-3,6˜.0˜19,24˜]pentacosa[8,16,18,24]tetraen]-7′-yl)-N,N-dimethylacetamide] | – | – | – | 0.071 | 41
